One assay deals with T84 cells. Put plainly: Short circuit current (Isc) in Ussing chamber across T84 cells monolayer.
The subject of another assay is rat jejunum. Put plainly: Short circuit current (Isc) in Ussing chamber across rat jejunum tissue. The conditions noted are these: for inhibition of SP-333-stimulated Isc: inhibitor pretreatment 5 min, 1 μM SP-333.
Assay [1] deals with female Sprague-Dawley rats. As to the kind of experiment: Reversal of morphine-induced delayed GI transit by oral SP-333. The class given is in vivo, rat. How it is done:
(§1) Effect of SP-333 on opioid-induced GI transit delay in rats: The ability of opioids to delay GI transit in rats was tested by either administering 0 (vehicle) 0.25, 1 and 2.5 mg/kg of morphine or 0 (vehicle), 0.25, 2.5 and 5 mg/kg of methadone (1.5 ml/kg dose volume) by IP injection. Water served as vehicle control. Ten minutes later, a 2 mL charcoal meal consisting of 10% activated charcoal (Sigma-Aldrich, St. Louis, Mo.) and 10% gum Arabic (Sigma-Aldrich, St. Louis, Mo.) in water was administered via oral gavage. Rats were euthanized 10 min after the charcoal meal via IP injection of 150 mg/kg Beuthanasia-D solution (sodium pentobarbital, 390 mg/mL). The small intestine was removed and the total length from the pyloric sphincter to the ileocecal junction was recorded, as well as the distance travelled by the leading edge of the charcoal. Intestinal transit was determined by calculating the ratio (expressed as a percentage) of the distance between the pyloric sphincter and the leading edge of the charcoal to the distance between the pyloric sphincter and the ileocecal junction.
To evaluate the ability of SP-333 to reverse morphine induced delayed GI transit, animals were administered 2.5 mg/kg of morphine by IP injection followed immediately by oral gavage of 0 (vehicle), 0.5, 2.5, 5 and 50 mg/kg of SP-333 (1.5 ml/kg dose volume). Water served as vehicle control. Charcoal meal was administered ten minutes later and animals were euthanized ten minutes after the charcoal meal and intestinal transit was calculated as described above.

Assay [2] deals with female Sprague-Dawley CD rats. Put plainly: Methadone-induced constipation (fecal pellet output). The class given is in vivo, rat. How it is done: Effect of SP-333 on methadone-induced constipation in rats: To identify the methadone dose that induces constipation in rats, female Sprague-Dawley CD rats 7 to 8 weeks of age (n=6/group) were administered 0 (vehicle), 2.5, 5, and 7.5 mg/kg of methadone (1.5 ml/kg dose volume) by IP injection once a day for 5 days. Fecal pellets were collected at 4 h intervals during the light cycle and average number of pellets was recorded for each group during the course of the study following daily dose administrations of methadone.
To evaluate the ability of SP-333 to relieve methadone-induced constipation, female Sprague-Dawley CD rats 7 to 8 weeks of age (n=7/group) were administered 5 mg/kg of methadone (or vehicle) each day for 7 days via IP injection to induce constipation. Ten minutes following the IP dose each day, an oral gavage of 2.5, and 5 mg/kg of SP-333 or vehicle (buffer) was administered. Fecal pellets were collected at 4 h intervals during the light cycle and average number of pellets recorded for each group during the course of the study following daily administration of vehicle, methadone or combination of methadone and SP-333.

Assay [3] deals with female Sprague-Dawley CD rats. As to the kind of experiment: GI transit delay induced by repeated methadone administration. Type of assay: in vivo, rat. Conditions: for GI transit after repeated methadone dosing (words): repeated daily IP methadone (5 then 2.5 mg/kg). On the procedure: The ability of SP-333 to alleviate GI transit delay induced by repeated methadone administration was also evaluated in the similar manner. Female Sprague-Dawley CD rats 7 to 8 weeks of age (n=7/group) received via IP injection 16 doses of methadone (once daily; 7 doses @ 5 mg/kg and 9 doses @ 2.5 mg/kg). Ten minutes following each methadone dose, each group received an oral gavage of vehicle, 2.5, and 5 mg/kg of SP-333. At the end of the dosing regimen, animals were fasted overnight and GI transit was evaluated as described above.

In assay [4] the test system is female Sprague-Dawley rats. Put plainly: Reversal of methadone-induced delayed GI transit by oral SP-333. The class given is in vivo, rat. On the procedure: as §1
To evaluate the ability of SP-333 to reverse methadone induced delayed GI transit, animals were administered 2.5 mg/kg of methadone by IP injection. Ten minutes later, an oral gavage of 0 (vehicle), 0.1, 0.5, 2.5, 5 and 50 mg/kg of SP-333 (1.5 ml/kg dose volume) was administered followed immediately by a 2 mL oral gavage of the charcoal meal. Ten minutes after the charcoal meal, animals were euthanized and intestinal transit was calculated as described above.

Assay [5] concerns female Sprague-Dawley rats. Put plainly: GI transit (charcoal meal) after single oral SP-333 in opioid naïve rats. Type of assay: in vivo, rat. On the procedure:
FIGS. 7A-B is a series of graphs showing that oral treatment with SP-333 increases GI transit in rats. […] Panel A is a bar graph showing that SP-333 increases GI transit by 5.6%, 13%, and 23% at 0.05, 0.5, and 5 mg/kg, respectively in opioid naïve animals. Panel B is a distribution graph showing the data of each individual animal.
as §1

For assay [6], the system named is female Sprague-Dawley rats. Put plainly: Opioid-induced GI transit delay after single IP opioid dose (charcoal meal). The class given is in vivo, rat. How it is done: Animals: All study procedures were conducted under a study outline approved by the Institutional Animal Care and Use Committee of MB Research Labs (Spinnerstown, Pa.) or Lampire Biological Laboratories (Pipersville, Pa.). Seven to eight week old female Sprague-Dawley rats [Crl:CD(SD)], weighing between ˜180-210 grams, were obtained from Charles River Laboratories and allowed to acclimate for a week. Animals were maintained on a 12 hour light-dark cycle. For intestinal tissue collection and evaluation of GI transit, rats were fasted for at least 18 hours before the experiment, with free access to water.
as §1

Where [7] appears, read: 5 μM methadone apical 5 min, then 1 μM SP-333.
[8] abbreviates: 5 μM morphine apical 5 min, then 1 μM SP-333.

This is an account of results in patent US20160220630A1, “AGONISTS OF GUANYLATE CYCLASE USEFUL FOR THE TREATMENT OF OPIOID INDUCED DYSFUNCTIONS” (priority 2013, published 2016).

SMILES strings stand for the structures. Entries after “also recorded” stand apart in the source; their conditions may differ. Positions of bridges follow the written chain, without caps; N, C: chain ends. Non-standard residues stand in square brackets, D forms with d. Residues, ends and D or L forms follow the SMILES beside them.

`O=C(O)c1ccc(/C=C2\SC(=S)N(c3cccc(C(F)(F)F)c3)C2=O)cc1` [CFTRinh172]: the “suppression in SP-333-stimulated Isc” value in the assay with T84 cells (10 μM CFTRinh172, compared with 1 μM SP-333 alone) was determined as 80%. Besides, the “inhibition of SP-333-stimulated Isc” value with rat jejunum was “less compared to that detected in T84 cells”.
Regarding `[Cl][Cd][Cl]` [CdCl2], the “decrease in SP-333-stimulated Isc” value with T84 cells (CdCl2 300 μM or mPKI 3.2 μM, 1 μM SP-333) is recorded as “No appreciable decrease; also recorded: minimal effect”. For the same compound, the “inhibition of SP-333-stimulated Isc” value in the assay with rat jejunum was “minimal effect”.
For `COC(=O)[C@@]1(OC)C[C@H]2O[C@]1(C)n1c3ccccc3c3c4c(c5c6ccccc6n2c5c31)C(=O)N(C)C4` [PKG-II inhibitor], in the assay with T84 cells (PKG-II inhibitor 4 μM, 1 μM SP-333), the “suppression of relative SP-333-stimulated Isc” value is “approximately 35%”.
Consider `CC(C)C[C@@H]1NC(=O)[C@H](CCC(=O)O)NC(=O)[C@@H](NC(=O)[C@H](CCC(=O)O)NC(=O)[C@H](CC(=O)O)NC(=O)[C@H](N)CC(N)=O)CSSC[C@@H]2NC(=O)[C@H](C)NC(=O)[C@H](C(C)C)NC(=O)[C@H](CC(N)=O)NC(=O)[C@H](C(C)C)NC(=O)[C@H](CSSC[C@@H](C(=O)N[C@H](CC(C)C)C(=O)O)NC(=O)CNC(=O)[C@H]([C@@H](C)O)NC2=O)NC1=O` [SP-333, dAsn^1-Asp^2-Glu^3-Cys^4-Glu^5-Leu^6-Cys^7-Val^8-Asn^9-Val^10-Ala^11-Cys^12-Thr^13-Gly^14-Cys^15-dLeu^16] (H-[dN]DECELCVNVACTGC[dL]-OH; disulfide 4-12, 7-15), for which the “GI transit in morphine-treated rats” value in assay [1] (morphine 2.5 mg/kg IP + SP-333 0.5 mg/kg oral) is on record as 27%; in assay [1] (morphine 2.5 mg/kg IP + SP-333 2.5 mg/kg oral), 37%; in assay [1] (morphine 2.5 mg/kg IP + SP-333 5 mg/kg oral) it was 46%; in assay [1] (morphine 2.5 mg/kg IP + SP-333 50 mg/kg oral) it was 48%. In addition, the “SP-333 dose sufficient to relieve the effect of morphine on GI transit” value in assay [1] (morphine 2.5 mg/kg IP, SP-333 oral) is listed as 5 mg/kg. In assay [1] (orally administered SP-333), the “delay in GI transit caused by morphine” value is “completely restored the delay in GI transit”. For the same compound, the “fecal pellet count compared to the methadone dosed group without SP-333” value in assay [2] (methadone 5 mg/kg IP + SP-333 2.5 mg/kg oral, once daily 7 days) was “threefold increase; also recorded: significantly relieved methadone-induced constipation”. Moreover, in assay [2] (methadone 5 mg/kg IP + SP-333 2.5 and 5 mg/kg oral, once daily 7 days), the “fecal output / average number of pellets” value is listed as “partially restored fecal output; also recorded: higher compared to the methadone dosed group”. Moreover, the “increase in Isc (chloride currents)” value with T84 cells (SP-333 0.01-10 μM apical) and in the assay with rat jejunum (SP-333 0.01-10 μM apical) was “concentration-dependent increase in Isc approaching saturation at 10 μM” in each case. For the same compound, in assay [3] (repeated daily IP methadone (5 then 2.5 mg/kg) + SP-333 2.5 and 5 mg/kg oral), the “GI transit delay after repeated methadone dosing” value was “normalized GI transit; also recorded: relieved the GI-transit delay; also recorded: statistically significant improvement in GI transit delay”. Moreover, the “GI transit in methadone-treated rats” value in assay [4] (methadone 2.5 mg/kg IP + SP-333 0.5 mg/kg oral) is reported as 40%; in assay [4] (methadone 2.5 mg/kg IP + SP-333 2.5 mg/kg oral), 39%; in assay [4] (methadone 2.5 mg/kg IP + SP-333 5 mg/kg oral) it was 44%; in assay [4] (methadone 2.5 mg/kg IP + SP-333 50 mg/kg oral), 52%. In assay [4] (methadone 2.5 mg/kg IP, SP-333 oral), the “SP-333 dose sufficient to relieve the effect of methadone on GI transit” value is reported as 5 mg/kg. Besides, the “delay in GI transit caused by methadone” value in assay [4] (orally administered SP-333) is recorded as “completely restored the delay in GI transit”. In addition, the “increase in GI (small intestinal) transit compared to vehicle controls” value in assay [5] (SP-333 0.05 mg/kg single oral gavage) was found to be 5.6%; in assay [5] (SP-333 0.5 mg/kg single oral gavage), 13%; in assay [5] (SP-333 5 mg/kg single oral gavage) it was 23%.
As to `CCC(=O)C(CC(C)N(C)C)(c1ccccc1)c1ccccc1` (stereo not shown) [methadone], in assay [6] (IP), the “methadone dose sufficient to significantly reduce GI transit” value is given as 2.5 mg/kg. Besides, in assay [6] (methadone 2.5 mg/kg IP), the “GI transit delay vs corresponding vehicle controls” value was determined as 49%. For the same compound, the “effect of methadone on GI transit” value in assay [6] (methadone 0.25, 2.5 and 5 mg/kg IP) is given as “significantly reduced GI transit; also recorded: statistically significant reduction in GI transit”. In addition, the “effect of methadone on fecal output” value in assay [2] (daily IP methadone 2.5, 5 and 7.5 mg/kg) is “drastically reduced daily fecal output; also recorded: statistically significant reduction in fecal output”. Besides, the “effect of methadone pre-treatment on SP-333-stimulated Isc” value in the assay on T84 cells (setting [7]) and in the assay with rat jejunum (setting [7]) was “no effect; also recorded: not adversely affected” throughout. Further, the “GI transit after repeated methadone dosing (words)” value in assay [3] is on record as “significant delay in GI transit”; in assay [3] (listed as Methadone), “significant reduction in GI transit”.
On to `CN1CC[C@]23c4c5ccc(O)c4O[C@H]2[C@@H](O)C=C[C@H]3[C@H]1C5` [morphine], for which the “GI transit slowed by, compared to vehicle controls” value in assay [6] (morphine 2.5 mg/kg IP single dose) was found to be 56%. For the same compound, the “effect of morphine on GI transit” value in assay [6] (morphine IP 0.25, 1.0 and 2.5 mg/kg) is listed as “significantly reduced GI transit”. In addition, the “effect of morphine pre-treatment on SP-333-stimulated Isc” value in the assay with T84 cells (setting [8]) and in the assay on rat jejunum (setting [8]) was “negligible effect; also recorded: not adversely affected” in each case.
